Usually IC50 stands for the concentration needed to halve the response being measured.

These results are taken from patent US20150073002A1, “COMBINATION” (GlaxoSmithKline LLC, priority 2010, published 2015).

The subject of assay [1] is HCC1419. The assay is described as follows: Cell growth inhibition assay (Cell Titer Glo), HCC1419. The assay is classed as cell-based. The conditions noted are these: Homo sapiens, 72 h; HCC1419, 3 days, single agent; read-out: Single Agent IC50 (μM), mean ± STD. How it is done: (§1) Human breast tumor cell lines BT474, HCC1419, HCC1954, JIMT1, MDA-MB-361, SK-BR-3 and UACC893 were cultured in RPMI 1640 medium containing 10% FBS. BT-474-J4, a breast cancer cell line acquired resistant to Compound A was cultured in RPMI 1640 medium containing 10% FBS and 1 μM of Compound A. KPL4 breast cancer line was cultured in DMEM containing 5% FBS. All lines were kept in a humidified incubator at 37° C. in 95% air and 5% CO2. JIMT-1 is a cell line established from a tumor of a patient with trastuzumab-resistant breast cancer. BT-474-J4 is a single cell clone derived from a culture of BT-474 cells that were selected to grow in Compound A to a concentration of 3 μM.
(§2) All cells were cultured for a minimum of 72 hours prior to cell plating. […] ATP levels were determined by adding Cell Titer Glo® (Promega) according to the manufacturer's protocol. Briefly, Cell Titer Glo® was added to each plate, incubated for 20 minutes then the luminescent signal was read on a SpectraMax L plate reader with a 0.5 sec integration time.
(§3) Inhibition of cell growth was estimated after treatment with compound or a combination of compounds for three days and comparing the signal to cells treated with vehicle (DMSO). Cell growth was calculated relative to vehicle (DMSO) treated control wells. […]
Background: Cellular ATP, detected with luciferase, serves as a proxy for viable cell number.

The subject of assay [2] is KPL-4, UACC893 and HCC1954 lines. The experiment in a line: Cell growth inhibition, text summary over three lines. The assay is classed as cell-based. The conditions noted are these: Homo sapiens, 72 h; over KPL-4, UACC893 and HCC1954 lines, 3 days; read-out: IC50 as a single agent. The procedure: as §1
(§4) All cells were cultured for a minimum of 72 hours prior to cell plating. Cells were assayed in a 96-well tissue culture plate (NUNC 136102) of RPMI medium containing 10% FBS for all cells at 2,000 cells per well except KPL4, which were plated in DMEM containing 5% FBS at 500 cells per well. Approximately 24 hours after plating, cells were exposed to ten, two-fold or three-fold serial dilutions of compound or the combination of the two agents at a constant molar to molar ratio of 1:1 Compound A to Compound B in RPMI media containing 10% FBS or DMEM containing 5% FBS for KPL4. Cells were incubated in the presence of compounds for 3 days. ATP levels were determined by adding Cell Titer Glo® (Promega) according to the manufacturer's protocol. Briefly, Cell Titer Glo® was added to each plate, incubated for 20 minutes then the luminescent signal was read on a SpectraMax L plate reader with a 0.5 sec integration time.
as §3
(§5) Combination effects on potency were evaluated using Combination Index (CI) which was calculated with the back-interpolated IC50 values and the mutually non-exclusive equation derived by Chou and Talalay (Chou T C, Talalay P. Quantitative analysis of dose-effect relationships: the combined effects of multiple drugs or enzyme inhibitors. Adv Enzyme Regul 1984; 22:27-55): […]
(§6) The combination effects on the response scale were quantified by Excess Over Highest Single Agent (EOHSA) [Liu L, Shi H, Liu Y, Anderson A, Peterson J, Greger J, Martin A M, Gilmer T M. Synergistic Effects of Foretinib with HER-Targeted Agents in MET and HER1- or HER2-Coactivated Tumor Cells. […] For single agent and combination treatments, cells were exposed to compounds at a fixed-dose-ratio, and dose response curves were fit to the experimental data and analyzed using regression models described above. […]

Assay [3] deals with HCC1419, SK-BR-3 and BT474 lines. The description is as above. The assay is classed as cell-based. As to conditions: Homo sapiens, 72 h; over HCC1419, SK-BR-3 and BT474 lines, 3 days; read-out: IC50 as a single agent. How it is done:
as §1, §4, §3, §5, §6

In assay [4] the test system is HCC1954. The experiment in a line: Cell growth inhibition assay (Cell Titer Glo), HCC1954. The assay is classed as cell-based. The conditions noted are these: Homo sapiens, 72 h; HCC1954, 3 days, single agent; read-out: Single Agent IC50 (μM), mean ± STD. The procedure:
as §1, §2, §3

Assay [5] deals with JIMT-1. The experiment in a line: Cell growth inhibition assay (Cell Titer Glo), JIMT-1. The class given is cell-based, human. The conditions noted are these: JIMT-1, 3 days, single agent, read-out: Single Agent IC50 (μM), mean ± STD. The procedure: as §1, §4, §3, §5, §6
The test system of assay [6] is BT474-J4. The experiment in a line: Cell apoptosis induction, caspase-3/7 activation, BT474-J4. The class given is cell-based, human. As to conditions: BT474-J4, 24 hours. The procedure: as §1
(§7) For investigation of the induction of apoptosis, cells were plated at 5,000 cells per well in a 96-well tissue culture plate and allowed to attach for approximately 24 hours. Cells were exposed to ten, two-fold or three-fold serial dilutions of compound or the combination of the two agents at a constant molar to molar ratio of 10:1 Compound A to Compound B in RPMI media containing 10% FBS or DMEM containing 5% FBS for KPL4. Twenty-four hours after compound treatment, caspase 3/7 activity was determined with the Caspase Glo™ 3/7 (Promega, cat G8093) according to the instructions provided by the manufacturer.

Assay [7] concerns UACC893. The assay is described as follows: Cell growth inhibition assay (Cell Titer Glo), UACC893. As to conditions: Homo sapiens, UACC-893, 72 h; UACC893, 3 days, single agent; read-out: Single Agent IC50 (μM), mean ± STD. The class given is cell-based. The procedure: as §1, §2, §3
Assay [8] concerns MDA-MB-361. The assay is described as follows: Cell growth inhibition assay (Cell Titer Glo), MDA-MB-361. The assay is classed as cell-based, human. The conditions noted are these: MDA-MB-361, 3 days, single agent, read-out: Single Agent IC50 (μM), mean ± STD. How it is done:
as §1
All cells were cultured for a minimum of 72 hours prior to cell plating. Cells were assayed in a 96-well tissue culture plate (NUNC 136102) of RPMI medium containing 10% FBS for all cells at 2,000 cells per well except KPL4, which were plated in DMEM containing 5% FBS at 500 cells per well. […] ATP levels were determined by adding Cell Titer Glo® (Promega) according to the manufacturer's protocol. Briefly, Cell Titer Glo® was added to each plate, incubated for 20 minutes then the luminescent signal was read on a SpectraMax L plate reader with a 0.5 sec integration time.
as §3, §5

The subject of assay [9] is KPL4. The assay is described as follows: Cell growth inhibition assay (Cell Titer Glo), KPL4. The class given is cell-based. The conditions noted are these: Homo sapiens, 72 h; KPL4, 3 days, single agent; read-out: Single Agent IC50 (μM), mean ± STD. The procedure:
as §1, §2, §3

Assay [10] concerns SK-BR-3. The experiment in a line: Cell growth inhibition assay (Cell Titer Glo), SK-BR-3. As to conditions: Homo sapiens, 72 h; SK-BR-3, 3 days, single agent; read-out: Single Agent IC50 (μM), mean ± STD. The class given is cell-based. The procedure:
as §1, §2, §3

Assay [11] concerns BT474. The experiment in a line: Cell apoptosis induction, caspase-3/7 activation, BT474. As to conditions: BT474, 24 hours. The class given is cell-based, human. How it is done:
as §1, §7

In assay [12] the test system is KPL-4. The assay is described as follows: Cell apoptosis induction, caspase-3/7 activation, KPL-4. The assay is classed as cell-based, human. How it is done:
as §1, §7

For assay [13], the system named is BT-474. The assay is described as follows: Cell growth inhibition assay (Cell Titer Glo), BT-474. The class given is cell-based. The conditions noted are these: Homo sapiens, 72 h; BT-474, 3 days, single agent; read-out: Single Agent IC50 (μM), mean ± STD. How it is done:
as §1, §2, §3

In assay [14] the test system is BT-474-J4. The assay is described as follows: Cell growth inhibition assay (Cell Titer Glo), BT-474-J4. The class given is cell-based, human. The conditions noted are these: BT-474-J4, 3 days, single agent, read-out: Single Agent IC50 (μM), mean ± STD. The procedure:
as §1, §4, §3

The test system of assay [15] is BT474-J4, and MDA-MB-361. The experiment in a line: Cell growth inhibition, text summary over two lines. The assay is classed as cell-based. The conditions noted are these: Homo sapiens, 72 h; over BT474-J4 and MDA-MB-361 lines, 3 days; read-out: IC50 as a single agent. How it is done:
All cells were cultured for a minimum of 72 hours prior to cell plating. […] Cells were incubated in the presence of compounds for 3 days. ATP levels were determined by adding Cell Titer Glo® (Promega) according to the manufacturer's protocol.
Cell growth was calculated relative to vehicle (DMSO) treated control wells.
In general, a CI value <0.9, between 0.9 and 1.1, or >1.1 indicates synergy, additivity and antagonism, respectively. In general, the smaller the CI number, the greater is the strength of synergy.

Where two headings read alike, the source gives them in different places.

As to `Cn1ncc(Cl)c1-c1cc(C(=O)N[C@H](CN)Cc2cccc(F)c2)sc1Cl` [Compound B, N-{(1S)-2-amino-1-[(3-fluorophenyl)methyl]ethyl}-5-chloro-4-(4-chloro-1-methyl-1H-pyrazol-5-yl)-2-thiophenecarboxamide], the IC50 was 2.62 ± 0.548 µM in [1]; 500 to 3700 nM in assay [2]; at least 2600 nM in [3]; 3.67 ± 2.97 µM in [4]; at least 6.8 µM in assay [5] (Homo sapiens, JIMT-1, 72 h); 6.81 ± 2.13 µM in assay [5]. In addition, the IC50 came out at 0.505 ± 0.303 µM in assay [7]; 0.7 µM in assay [8] (Homo sapiens, MDA-MB-361, 72 h); 0.758 ± 0.074 µM in assay [8]; 0.113 ± 0.012 µM in assay [9]; 4.19 ± 1.58 µM in assay [10]; 3.3 ± 1.1 µM in assay [13]. The IC50 in assay [14] came to 0.67 ± 0.026 µM; in assay [14] (Homo sapiens, 72 h), 0.5 µM. In addition, the “caspase 3/7 activity” value in assay [6] (compound alone at 1 μM) was “slightly increased caspase 3/7 activity”; in assay [11] (compound alone at 1 μM), “slightly increased caspase 3/7 activity”; in [12] (KPL-4, 24 hours, compound alone at 1 μM) it was “but not in the KPL-4 line”.
Take `CS(=O)(=O)CCNCc1ccc(-c2ccc3ncnc(Nc4ccc(OCc5cccc(F)c5)c(Cl)c4)c3c2)o1` [Compound A, N-{3-Chloro-4-[(3-fluorobenzyl)oxy]phenyl}-6-[5-({[2-(methanesulphonyl)ethyl]amino}methyl)-2-furyl]-4-quinazolinamine, reference compound]: the 50% inhibitory concentration (IC50) in assay [1] is 0.077 ± 0.017 µM; in assay [2], 900 to 1700 nM; in assay [3], at most 134 nM; in [4] it was 1.73 ± 0.165 µM; in assay [5] (Homo sapiens, JIMT-1, 72 h) it was at least 6.8 µM; in assay [5], above 10 µM. The IC50 in [7] was 1.12 ± 0.15 µM; in assay [8] (Homo sapiens, MDA-MB-361, 72 h) it was above 10 µM; in [9], 0.86 ± 0.039 µM; in [10] it was 0.105 ± 0.039 µM; in assay [15], at least 9200 nM; in assay [13] it was 0.134 ± 0.049 µM. Moreover, the IC50 in assay [14] (Homo sapiens, 72 h) worked out at 9.23 ± 3.83 µM. For the same compound, the “caspase 3/7 activity” value in [6] (compound alone at 10 μM) is “slight increase in caspase 3/7 activity”; in [11] (compound alone, dose response) it was “increased caspase 3/7 activity in a dose dependent manner”; in assay [12] (KPL4, 24 hours, compound alone at 10 μM), “slight increase in caspase 3/7 activity”.
